The values that follow come from patent US12630806B2 (priority 2020, dated 2026).

Entries after “also recorded” stand apart in the source; their conditions may differ. Where two headings read alike, the source gives them in different places.

Usually kcat stands for the number of substrate molecules converted per active site and unit of time at saturation.

In assay [1] the test system is FgAA7D, Fusarium graminearum PH-1, SEQ ID NO: 113. Type of assay: biochemical. To be noted: 150 nM enzyme, 10 mM cellobiose.
The target in assay [2] is T1, FgCelDH7C, Fusarium graminearum PH-1, SEQ ID NO: 1 (Table 2: SEQ ID NO: 31) (Fusarium graminearum, UniProt I1RWY4). To be noted: dehydrogenase assay, 0.1 mM DCIP, 0.1 μM enzyme, 50 mM HEPES pH 7.0, FgCelDH7C.
In assay [3] the target is T1, FgCelDH7C, Fusarium graminearum PH-1, SEQ ID NO: 1 (Table 2: SEQ ID NO: 31). It is filed as biochemical. The following applies: oxidase assay, 20 mM cellobiose; for V0/E: estimated.
Assay [4] has as its target T2, PsAA7A, Phytophthora sojae, SEQ ID NO: 7 (Table 2: SEQ ID NO: 37) (Phytophthora sojae, UniProt G4YI39).
T2 sequence (G4YI39 23-504): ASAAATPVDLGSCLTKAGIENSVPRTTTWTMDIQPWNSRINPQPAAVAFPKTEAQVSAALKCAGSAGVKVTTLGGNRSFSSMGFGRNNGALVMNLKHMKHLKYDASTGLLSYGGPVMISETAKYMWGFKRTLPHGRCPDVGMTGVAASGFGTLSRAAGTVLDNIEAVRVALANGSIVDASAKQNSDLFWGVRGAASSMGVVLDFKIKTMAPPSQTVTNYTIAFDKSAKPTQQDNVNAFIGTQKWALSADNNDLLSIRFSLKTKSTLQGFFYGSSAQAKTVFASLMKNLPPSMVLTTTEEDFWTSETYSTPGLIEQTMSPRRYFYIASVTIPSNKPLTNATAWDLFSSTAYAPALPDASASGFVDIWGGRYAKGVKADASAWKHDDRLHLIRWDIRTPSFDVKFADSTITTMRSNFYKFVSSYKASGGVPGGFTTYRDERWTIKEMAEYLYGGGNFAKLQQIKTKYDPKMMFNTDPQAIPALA
It is filed as biochemical.

For assay [5], the target named is T2, PsAA7A, Phytophthora sojae, SEQ ID NO: 7 (Table 2: SEQ ID NO: 37). Type of assay: biochemical. The source holds these as a separate data set.
The target in assay [6] is T3, MoChiO7A, Magnaporthe (anamorph Pyricularia) oryzae 70-15, SEQ ID NO: 21 (Table 2: SEQ ID NO: 35) (Pyricularia oryzae, UniProt G4NAH7). To be noted: oxidase assay, 50 mM NaOAc pH 5.2, MoChiO7A.
For assay [7], the target named is T4, FgChiO7B, Fusarium graminearum, SEQ ID NO: 20 (Table 2: SEQ ID NO: 33) (Fusarium graminearum, UniProt A0ACM8RFH6). The following applies: oxidase assay, 50 mM NaOAc pH 5.2, FgChiO7B.
Assay [8] has as its system PaLPMO9H. The assay is described as follows: AA7-LPMO synergy assay with PaLPMO9H on PASC or Avicel (HPAEC-PAD). Type of assay: biochemical, Podospora anserina.
For assay [9], the target named is T3, MoChiO7A, Magnaporthe (anamorph Pyricularia) oryzae 70-15, SEQ ID NO: 21 (Table 2: SEQ ID NO: 35). The following applies: dehydrogenase assay, 0.1 mM DCIP, 0.1 μM enzyme, 50 mM HEPES pH 7.0, MoChiO7A.
The target of assay [10] is T4, FgChiO7B, Fusarium graminearum, SEQ ID NO: 20 (Table 2: SEQ ID NO: 33). To be noted: dehydrogenase assay, 0.1 mM DCIP, 0.1 μM enzyme, 50 mM HEPES pH 7.0, FgChiO7B.
Assay [11] is classed as biochemical. To be noted: GalA; V0/E values.

As to `OC[C@H]1O[C@@H](O[C@H]2[C@H](O)[C@@H](O)C(O)O[C@@H]2CO)[C@H](O)[C@@H](O)[C@@H]1O` (some centres unmarked) [Cellobiose, cellobiose], in assay [1], the Estimated oxidase activity is 0.001 s⁻¹. Further, the kcat in assay [2] was 30.8 ± 0.81 s⁻¹. Also, the “normalized rate (slope of linear region/E), initial burst” value in assay [3] (150 μM enzyme) was found to be 0.00029 s⁻¹; in assay [3] (500 μM enzyme), 0.00013 s⁻¹. For the same molecule, the “reaction rate, second phase” value turned out to be 7e-05 s⁻¹ in assay [3] (150 μM enzyme) and 4.1e-05 s⁻¹ in assay [3] (500 μM enzyme). For the same molecule, the figures for the V0/E result in [3] (150 uM enzyme) and in assay [3] (500 uM enzyme) were “(2.93E−4^c) s^−1” and 1.29E−4^b s^−1, respectively.
`O=C(O)[C@H]1OC(O)[C@H](O)[C@@H](O)[C@H]1O` (some centres unmarked) [GalA, galacturonic acid]: the “dehydrogenase activity (V0/E)” value in assay [4] amounted to 6.4 s⁻¹. For the same molecule, in [5], the V0/E is 1.7E−4^d s^−1 and the “oxidase activity estimated from the linear segments after the initial delayed burst” value is reported as 1.7±0.6 ×10^−4 s^−1.
As for `CC(=O)N[C@H]1C(O)O[C@H](CO)[C@@H](O)[C@@H]1O` (some centres unmarked) [GlcNAc], the kcat in assay [6] turned out to be 3.8 ± 0.07 s⁻¹; in assay [7] it was 6.76 ± 0.31 s⁻¹.
In the case of `OC[C@H]1O[C@@H](O[C@H]2[C@H](O)[C@@H](O)[C@H](O[C@H]3[C@H](O)[C@@H](O)C(O)O[C@@H]3CO)O[C@@H]2CO)[C@H](O)[C@@H](O)[C@@H]1O` (some centres unmarked) [Cellotriose, cellotriose], in assay [2], the catalytic constant (kcat) was 36.1 ± 0.74 s⁻¹.
In the case of `CC(=O)N[C@H]1C(O)O[C@H](CO)[C@H](O)[C@@H]1O` (some centres unmarked) [GalNAc], in assay [6], the kcat came out at 3.67 ± 0.06 s⁻¹.
`OC[C@H]1O[C@@H](O[C@H]2[C@H](O)[C@@H](O)[C@H](O[C@H]3[C@H](O)[C@@H](O)[C@H](O[C@H]4[C@H](O)[C@@H](O)C(O)O[C@@H]4CO)O[C@@H]3CO)O[C@@H]2CO)[C@H](O)[C@@H](O)[C@@H]1O` (some centres unmarked) [Cellotetraose, cellotetraose]: the catalytic constant (kcat) in assay [2] amounted to 39.2 ± 0.76 s⁻¹.
For the molecule `O=C1C=CC(=Nc2cc(Cl)c(O)c(Cl)c2)C=C1` [DCIP, 2,6-dichlorophenolindophenol], the “synergy with PaLPMO9H: released cello-oligosaccharides from PASC” value in assay [8] is recorded as “inhibited the observed synergy”.
Turning to `CC(=O)N[C@H]1[C@H](O[C@H]2[C@H](O)[C@@H](NC(C)=O)C(O)O[C@@H]2CO)O[C@H](CO)[C@@H](O)[C@@H]1O` (some centres unmarked) [Chitobiose, chitobiose], the kcat in [9] worked out at 22.4 ± 0.5 s⁻¹; in assay [6], 4.37 ± 0.12 s⁻¹; in assay [10] it was 29.3 ± 0.41 s⁻¹; in [7], 2.27 ± 0.03 s⁻¹.
In the case of `CC(=O)N[C@H]1[C@H](O[C@H]2[C@H](O)[C@@H](NC(C)=O)C(O)O[C@@H]2CO)O[C@H](CO)[C@@H](O[C@@H]2O[C@H](CO)[C@@H](O)[C@H](O)[C@H]2NC(C)=O)[C@@H]1O` (some centres unmarked) [Chitotriose, chitotriose], the figures for the turnover number (kcat) in assay [6] and in [7] were 3.71 ± 0.09 s⁻¹ and 6.14 ± 0.29 s⁻¹, respectively.

B1: PsAA7A: AA7 clade IIb enzyme from Phytophthora sojae, active on glucuronic and galacturonic acid (protein, listed as Phytophthora sojae)
chain: MVSSASSAIFALCSLIAAQSGLASAAATPVDLGSCLTKAGIENSVPRTTTWTMDIQPWNSRINPQPAAVAFPKTEAQVSAALKCAGSAGVKVTTLGGNRSFSSMGFGRNNGALVMNLKHMKHLKYDASTGLLSYGGPVMISETAKYMWGFKRTLPHGRCPDVGMTGVAASGFGTLSRAAGTVLDNIEAVRVALANGSIVDASAKQNSDLFWGVRGAASSMGVVLDFKIKTMAPPSQTVTNYTIAFDKSAKPTQQDNVNAFIGTQKWALSADNNDLLSIRFSLKTKSTLQGFFYGSSAQAKTVFASLMKNLPPSMVLTTTEEDFWTSETYSTPGLIEQTMSPRRYFYIASVTIPSNKPLTNATAWDLFSSTAYAPALPDASASGFVDIWGGRYAKGVKADASAWKHDDRLHLIRWDIRTPSFDVKFADSTITTMRSNFYKFVSSYKASGGVPGGFTTYRDERWTIKEMAEYLYGGGNFAKLQQIKTKYDPKMMFNTDPQAIPALA
modifications: peptide (1)..(504) PsAA7A from Phytophthora sojae - an AA7 enzyme belonging to clade IIb
Turning to B1, the dehydrogenase/oxidase ratio entry in [11] is on record as “about 4×10^4”. For the same molecule, the “synergy to LPMO catalyzed degradation of avicel” value in assay [8] (Avicel 0.5% (w/v), 35° C., 24 h, PaLPMO9H, AA7 with its substrate (cellotetraose or galacturonic acid 0.8 mM)) is “does not (or does only with a far lower extent) confer synergy”.

B2: HRP: horseradish peroxidase, captures H2O2 (protein, UniProt P00433 31-338, looked up)
Peroxidase C1A: QLTPTFYDNSCPNVSNIVRDTIVNELRSDPRIAASILRLHFHDCFVNGCDASILLDNTTSFRTEKDAFGNANSARGFPVIDRMKAAVESACPRTVSCADLLTIAAQQSVTLAGGPSWRVPLGRRDSLQAFLDLANANLPAPFFTLPQLKDSFRNVGLNRSSDLVALSGGHTFGKNQCRFIMDRLYNFSNTGLPDPTLNTTYLQTLRGLCPLNGNLSALVDFDLRTPTIFDNKYYVNLEEQKGLIQSDQELFSSPNATDTIPLVRSFANSTQTFFNAFVEAMDRMGNITPLTGTQGQIRLNCRVVNSNS
For B2, in [8] (Avicel, 18 h at 35° C., HRP or SOD added), the “effect of additive on PaLPMO9H-FgCelDH7C synergy / LPMO activity” value is “inhibitory of the LPMO activity; also recorded: abolished the activity”.
